In EP4603105A1, “PHARMACEUTICAL COMPOSITION CONTAINING CYCLIC COMPOUND HAVING SELECTIVE KRAS INHIBITORY EFFECT AGAINST HRAS AND NRAS” (CHUGAI SEIYAKU KABUSHIKI KAISHA, priority 2022, dated 2024):
Where a SMILES comes first, the peptide text is derived from it. Bridges are numbered along the chain shown (N, C = ends). [ ]: non-standard residue; d: D form. hPhe(3-Cl-4-CF3) = N[C@@H](CCc1ccc(C(F)(F)F)c(Cl)c1)C(=O)O; NPrPhe(4-CF3) = CCCN[C@@H](Cc1ccc(C(F)(F)F)cc1)C(=O)O; NMeNva(3-Et) = CCC(CC)[C@H](NC)C(=O)O; NMeD = CN[C@@H](CC(=O)O)C(=O)O; NMeL = CN[C@@H](CC(C)C)C(=O)O; Ac4c = NC1(C(=O)O)CCC1; Sar = CNCC(=O)O

Tests used:
[1] = target: GDP-bound NRAS wild-type protein (Homo sapiens, UniProt P01111); experiment: Binding to NRAS by surface plasmon resonance (SPR), KD and KD ratio to KRAS
Outline: (§1)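 Captured GDP-RAS (~100–300 RU) was exposed to increasing compound concentrations, 75 s per step, in running buffer with 10 µM GDP, 10 mM MgCl2 and 4% DMSO at pH 7.4.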

[2] = target: HRAS wild-type protein (Homo sapiens, UniProt P01112); experiment: Binding to HRAS by surface plasmon resonance (SPR), KD and KD ratio to KRAS
Outline: as §1

[3] = system: human lung cancer strain NCI-H441; format: cell-based
Outline: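 Step one: dispense the test compound in serial DMSO dilutions. Step three: add the reagent and measure […].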

[4] = ratio of KD for GDP-bound NRAS wild-type protein to KD for KRAS
[5] = ratio of KD for HRAS wild-type protein to KD for KRAS
[6] = ratio of the KD value with respect to GDP-bound NRAS wild-type protein to the KD value with respect to KRAS
[7] = ratio of the KD value with respect to HRAS wild-type protein to the KD value with respect to KRAS
[8] = ratio of KD value for GDP-bound NRAS wild-type protein to KD value for KRAS (SPR)
[9] = ratio of KD value for HRAS wild-type protein to KD value for KRAS (SPR)

HRAS wild-type protein, sequence (P01112 whole entry): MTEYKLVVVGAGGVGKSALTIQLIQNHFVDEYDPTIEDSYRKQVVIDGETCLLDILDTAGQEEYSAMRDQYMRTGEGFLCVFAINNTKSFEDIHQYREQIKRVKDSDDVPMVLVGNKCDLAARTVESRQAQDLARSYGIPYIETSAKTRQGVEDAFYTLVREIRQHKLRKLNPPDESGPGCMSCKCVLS
GDP-bound NRAS wild-type protein, sequence (P01111 whole entry): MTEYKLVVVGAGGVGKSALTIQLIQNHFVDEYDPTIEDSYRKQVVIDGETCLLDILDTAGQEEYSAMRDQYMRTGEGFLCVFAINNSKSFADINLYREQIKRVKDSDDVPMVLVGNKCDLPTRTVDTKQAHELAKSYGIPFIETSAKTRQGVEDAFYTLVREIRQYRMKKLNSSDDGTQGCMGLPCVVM

| IC50 [3] | SMILES | NRAS /KRAS [1, 4] | HRAS /KRAS [2, 5] | NRAS /KRAS [1, 6] | HRAS /KRAS [2, 7] | NRAS /KRAS [1, 8] | HRAS /KRAS [2, 9] |
| --- | --- | --- | --- | --- | --- | --- | --- |
| 34.8 nM | CC[C@H](C)[C@@H]1NC(=O)[C@H](C)N(C)C(=O)C[C@@H](C(=O)N(C)C)N(C)C(=O)[C@H](C2CCCC2)N(C)C(=O)C2(CCC2)NC(=O)[C@@H]2CC(F)(F)CN2C(=O)[C@H](CCc2cc(F)c(C(F)(F)F)c(F)c2)NC(=O)CN(C)C(=O)[C@H](Cc2ccc(C(F)(F)F)cc2)N2CC/C=C\C[C@@H](C2=O)N(C)C(=O)CN(C)C1=O [PP1103] | A (a compound having 10 or more and less than 20 is denoted as A) | B (a compound having 3 or more and less than 10 is denoted as B) |  |  |  |  |
| 20.3 nM | CCC[C@H]1C(=O)N[C@@H](C2CCCC2)C(=O)N(C)CC(=O)N(C)[C@H]2C/C=C\CCN(C2=O)[C@@H](Cc2ccc(C(F)(F)F)cc2)C(=O)N(C)CC(=O)N[C@@H](CCc2ccc(C(F)(F)F)c(Cl)c2)C(=O)N2CC3(CC3)C[C@H]2C(=O)NC2(CC(C)(C)C2)C(=O)N(C)[C@@H](CC(C)(C)C)C(=O)N(C)[C@H](C(=O)N(C)C)CC(=O)N1C [PP2981] | AA (a compound having 20 or more is denoted as AA) | A (a compound having 10 or more and less than 20 is denoted as A) |  |  |  |  |
| 228 nM | CCO[C@@H]1C[C@H]2C(=O)NC3(CCC3)C(=O)N(C)[C@@H](C3CCCC3)C(=O)N(C)[C@H](C(=O)N3CCOCC3)CC(=O)N(C)[C@@H](COC)C(=O)N[C@@H]([C@@H](C)CC)C(=O)N3CC[C@H]3C(=O)N(C)[C@H]3CCCCCN(C3=O)[C@@H](Cc3ccc(C(F)(F)F)cc3)C(=O)N(C)CC(=O)N[C@@H](CCc3cc(F)c(C(F)(F)F)c(F)c3)C(=O)N2C1 [PP0863] | B (a compound having 3 or more and less than 10 is denoted as B) | B (a compound having 3 or more and less than 10 is denoted as B) |  |  |  |  |
| 18.3 nM | CC[C@H](C)[C@@H]1NC(=O)[C@H](CC(C)C)N(C)C(=O)C[C@@H](C(=O)N(C)CC)N(C)C(=O)[C@H](C2CCCC2)N(C)C(=O)C2(CCC2)NC(=O)[C@@H]2C[C@H](C)CN2C(=O)[C@H](CCc2ccc(C(F)(F)F)c(OC)c2)NC(=O)CN(C)C(=O)[C@H](Cc2ccc(C)cc2)N2CC/C=C\C[C@@H](C2=O)N(C)C(=O)CN(C)C1=O [PP1904] |  |  | A (a compound having 10 or more and less than 20 is denoted as A) | B (a compound having 3 or more and less than 10 is denoted as B) |  |  |
| 60.7 nM | CCO[C@@H]1C[C@H]2C(=O)NC3(CCC3)C(=O)N(C)[C@@H](C3CCCC3)C(=O)N(C)[C@H](C(=O)N3CCOCC3)CC(=O)N(C)[C@@H](CCOC)C(=O)N[C@@H]([C@@H](C)CC)C(=O)N(C)CC(=O)N(C)[C@H]3CCCCCN(C3=O)[C@@H](Cc3ccc(C(F)(F)F)cc3)C(=O)N(C)CC(=O)N[C@@H](CCc3cc(F)c(C(F)(F)F)c(F)c3)C(=O)N2C1 [PP0690] |  |  | B (a compound having 3 or more and less than 10 is denoted as B) | B (a compound having 3 or more and less than 10 is denoted as B) |  |  |
| 7.1 nM | CCCN(C)C(=O)[C@@H]1CC(=O)N(C)[C@@H](CC(F)F)C(=O)N[C@@H]([C@@H](C)CC)C(=O)N(C)CC(=O)N(C)[C@H]2C/C=C\CCN(C2=O)[C@@H](Cc2ccc(C(F)(F)F)cc2)C(=O)N(C)CC(=O)N[C@@H](CCc2cc(F)c(Cl)c(F)c2)C(=O)N2C[C@H](OCC)C[C@H]2C(=O)NC2(CC(C)(C)C2)C(=O)N(C)[C@@H](C2CCCC2)C(=O)N1C [PP1757] |  |  |  |  | AA (a compound having 20 or more is denoted as AA) | A (a compound having 10 or more and less than 20 is denoted as A) |
| 18.4 nM | CCO[C@@H]1C[C@H]2C(=O)NC3(CC(C)(C)C3)C(=O)N(C)[C@@H](C(CC)CC)C(=O)N(C)[C@H](C(=O)N(C)C)CC(=O)N(C)[C@@H](CC(C)C)C(=O)N[C@@H]([C@@H](C)CC)C(=O)N(C)CC(=O)N(C)[C@H]3C/C=C\CCN(C3=O)[C@@H](Cc3ccc(C(F)(F)F)cc3)C(=O)N(C)CC(=O)N[C@@H](CCc3ccc(C(F)(F)F)c(Cl)c3)C(=O)N2C1 [PP2132] |  |  | AA (a compound having 20 or more is denoted as AA) | A (a compound having 10 or more and less than 20 is denoted as A) |  |  |
| 26.2 nM | CC[C@H](C)[C@@H]1NC(=O)[C@H](CC)N(C)C(=O)C[C@@H](C(=O)N(C)C)N(C)C(=O)[C@H](C2CCCC2)N(C)C(=O)C2(CCCC2)N(C)C(=O)[C@@H]2C[C@@H](C)CN2C(=O)[C@H](CCc2cc(F)c(C(F)(F)F)c(F)c2)NC(=O)CN(C)C(=O)[C@H](Cc2ccc(C)cc2)N2CC/C=C\C[C@@H](C2=O)N(C)C(=O)[C@@H]2CCCN2C1=O [PP1814] |  |  |  |  | A (a compound having 10 or more and less than 20 is denoted as A) | A (a compound having 10 or more and less than 20 is denoted as A) |
| 26.5 nM | CCO[C@@H]1C[C@H]2C(=O)NC3(CCC3)C(=O)N(C)[C@@H](C3CCCC3)C(=O)N(C)[C@H](C(=O)N3CCOCC3)CC(=O)N(C)[C@@H](CC(C)C)C(=O)N[C@@H]([C@@H](C)CC)C(=O)N(C)CC(=O)N(C)[C@H]3C/C=C\CCN(C3=O)[C@@H](Cc3ccc(C(F)(F)F)cc3)C(=O)N(C)CC(=O)N[C@@H](CCc3ccc(C(F)(F)F)c(Cl)c3)C(=O)N2C1 [PP0825] | A (a compound having 10 or more and less than 20 is denoted as A) | A (a compound having 10 or more and less than 20 is denoted as A) |  |  |  |  |
| 35.9 nM | CCO[C@@H]1C[C@H]2C(=O)NC3(CC(C)(C)C3)C(=O)N(C)[C@@H](C(CC)CC)C(=O)N(C)[C@H](C(=O)N3CCCC3)CC(=O)N(C)[C@@H](C)C(=O)N[C@@H]([C@@H](C)CC)C(=O)N(C)CC(=O)N(C)[C@H]3C/C=C\CCN(C3=O)[C@@H](Cc3ccc(C(F)(F)F)cc3)C(=O)N(C)CC(=O)N[C@@H](CCc3ccc(Cl)c(Cl)c3)C(=O)N2C1 [PP2178] |  |  | AA (a compound having 20 or more is denoted as AA) | A (a compound having 10 or more and less than 20 is denoted as A) |  |  |
| 28.1 nM | CCO[C@@H]1C[C@H]2C(=O)NC3(CC(C)(C)C3)C(=O)N(C)[C@@H](C(CC)CC)C(=O)N(C)C(CC)CC(=O)N(C)[C@@H](CC)C(=O)N[C@@H]([C@@H](C)CC)C(=O)N(C)CC(=O)N(C)[C@H]3C/C=C\CCN(C3=O)[C@@H](Cc3ccc(C(F)(F)F)cc3)C(=O)N(C)CC(=O)N[C@@H](CCc3cc(F)c(C(F)(F)F)c(F)c3)C(=O)N2C1 (stereo partly drawn) [PP1622] |  |  |  |  | A (a compound having 10 or more and less than 20 is denoted as A) | A (a compound having 10 or more and less than 20 is denoted as A) |
| 6 nM | CCCN1C(=O)CN(C)C(=O)CN(C)C(=O)[C@H]([C@@H](C)CC)NC(=O)[C@H](CC(C)C)N(C)C(=O)C[C@@H](C(=O)N(C)C)N(C)C(=O)[C@H](C(CC)CC)N(C)C(=O)C2(CCC2)NC(=O)[C@@H]2CCCN2C(=O)[C@H](CCc2ccc(C(F)(F)F)c(Cl)c2)NC(=O)CN(C)C(=O)[C@@H]1Cc1ccc(C(F)(F)F)cc1 [PP1960] ([NMeL]I[Sar][Sar][NPrPhe(4-CF3)][Sar][hPhe(3-Cl-4-CF3)]P[Ac4c][NMeNva(3-Et)][NMeD]-NMe2; lactam N-11) |  |  | B (a compound having 3 or more and less than 10 is denoted as B) | C (A compound having a KD ratio of 0.1 or more and less than 3 is denoted as C) |  |  |
| 31.9 nM | CCO[C@@H]1C[C@H]2C(=O)NC3(CCCC3)C(=O)N(C)[C@@H](C3CCCC3)C(=O)N(C)[C@H](C(=O)N3CCOCC3)CC(=O)N(C)[C@@H](CC(C)C)C(=O)N[C@@H]([C@@H](C)CC)C(=O)N(C)CC(=O)N(C)[C@H]3CCCCCN(C3=O)[C@@H](Cc3ccc(C(F)(F)F)cc3)C(=O)N(C)CC(=O)N[C@@H](CCc3cc(F)c(C(F)(F)F)c(F)c3)C(=O)N2C1 [PP0492] |  |  | B (a compound having 3 or more and less than 10 is denoted as B) | B (a compound having 3 or more and less than 10 is denoted as B) |  |  |
| 5.5 nM | CCCN(C)C(=O)[C@@H]1CC(=O)N(C)[C@@H](COCC)C(=O)N[C@@H]([C@@H](C)CC)C(=O)N(C)CC(=O)N(C)[C@H]2C/C=C\CCN(C2=O)[C@@H](Cc2ccc(C(F)(F)F)cc2)C(=O)N(C)CC(=O)N[C@@H](CCc2cc(F)c(C(F)(F)F)c(F)c2)C(=O)N2C[C@H](OCC)C[C@H]2C(=O)NC2(CC(C)(C)C2)C(=O)N(C)[C@@H](C2CCCC2)C(=O)N1C [PP2031] |  |  | B (a compound having 3 or more and less than 10 is denoted as B) | B (a compound having 3 or more and less than 10 is denoted as B) |  |  |

| SMILES | IC50 [3] | NRAS /KRAS [1, 4] | HRAS /KRAS [2, 5] | NRAS /KRAS [1, 6] | HRAS /KRAS [2, 7] | NRAS /KRAS [1, 8] | HRAS /KRAS [2, 9] |
| --- | --- | --- | --- | --- | --- | --- | --- |
| CCCO[C@@H]1C[C@H]2C(=O)NC3(CC(C)(C)C3)C(=O)N(C)[C@@H](C3CCCC3)C(=O)N(C)[C@H](C(=O)N3CCCCC3)CC(=O)N(C)[C@H]3CCCc4ccc(cc4)C[C@@H](C(=O)N(C)CC(=O)N[C@@H](CCc4ccc(C(F)(F)F)c(OC)c4)C(=O)N2C1)N1CC/C=C\C[C@@H](C1=O)N(C)C(=O)CN(C)C(=O)[C@H]([C@@H](C)CC)NC3=O [PP3064] | 26.9 nM | B (a compound having 3 or more and less than 10 is denoted as B) | B (a compound having 3 or more and less than 10 is denoted as B) |  |  |  |  |
